Reference: US4490370A, “Naphthylglycyl cephalosporin derivatives” (priority 1983, dated 1984)
Values after ≈ are worked out from the molar mass of the structure shown. Where a name gives a salt, the structure may show the parent alone. Read-outs that look alike come from different tables or passages of the source.

What was measured:
Format in all cases: cell-based
Staph. aureus = test: Agar dilution MIC, Staph. aureus
From the text: (§1) The following Tables present typical minimum inhibitory concentrations (MIC's) in μg/ml for the compounds when evaluated against the indicated microorganisms.

H. influ. = test: Agar dilution MIC, H. influenza
From the text: as §1

Klebsiella = test: Agar dilution MIC, Klebsiella; conditions: Table I, strain X26
From the text: (§2) A typical and preferred compound provided by this invention is 7-(2-naphthylglycylamido)-3-methyl-3-cephem-4-carboxylic acid, the compound of Example 3. The antibacterial activity of this compound and several others of the invention has been determined in standard in vitro agar dilution assays against a variety of gram positive microorganisms. The following Tables present typical minimum inhibitory concentrations (MIC's) in μg/ml for the compounds when evaluated against the indicated microorganisms. MIC's for several known compounds are also presented for comparison.

Staph. epi = test: Agar dilution MIC, Staph. epi
From the text: as §1

Strep. A = test: Agar dilution MIC, Strep. A; conditions: Table I, strain C203
From the text: as §2

Strep. PN = test: Agar dilution MIC, Strep. PN; conditions: Table I, strain PARK
From the text: as §1

[1] = Staphylococcus aureus, Table I, strain S13E
[2] = Staphylococcus aureus, Table I, strain V41, read-out: MIC
[3] = Staphylococcus aureus, Table I, strain X1.1, read-out: MIC
[4] = Table I, strain BRUN, read-out: MIC
[5] = Table I, strain 222, read-out: MIC
[6] = Table I, strain EPI1, read-out: MIC
[7] = Table I, strain 251, read-out: MIC

With N[C@H](C(=O)N[C@@H]1C(=O)N2C(C(=O)O)=C(Cl)CS[C@H]12)c1ccc2ccccc2c1 [Ex. 5B, L-7-(2-naphthylglycylamido)-3-chloro-3-cephem-4-carboxylic acid] the MIC (Staph. aureus; Table I, strain X1.1) was 8 µg/mL (≈ 19.1 µM), the MIC (H. influ.; Table I, strain 251) was 16 µg/mL (≈ 38.3 µM) and the MIC (Klebsiella) was 2 µg/mL (≈ 4.79 µM). The MIC (Staph. epi; Table I, strain 222) was 4 µg/mL (≈ 9.57 µM), the MIC (Staph. epi; Table I, strain EPI1) was 32 µg/mL (≈ 76.6 µM) and the MIC (Strep. A) was 4 µg/mL (≈ 9.57 µM).
COc1ccc2cc([C@@H](N)C(=O)NC3C(=O)N4C(C(=O)O)=C(C)CSC34)ccc2c1 (stereo partly drawn) [Example 10, D-7-(6-Methoxy-2-naphthyl)glycylamido-3-methyl-3-cephem-4-carboxylic acid] gave an MIC (Strep. PN; read-out: MIC) of 0.125 µg/mL (≈ 0.292 µM), an MIC (Staph. aureus; [1]) of 16 µg/mL (≈ 37.4 µM) and an MIC (Staph. aureus; [2]) of 16 µg/mL (≈ 37.4 µM). The MIC (Staph. aureus; [3]) was 0.25 µg/mL (≈ 0.585 µM), the MIC (Staph. aureus; Staphylococcus aureus, Table I, strain X400, read-out: MIC) was 64 µg/mL (≈ 150 µM) and the MIC (Staph. aureus; Staphylococcus aureus, Table II, strain S224, read-out: MIC) was 0.5 µg/mL (≈ 1.17 µM). For the same compound, the MIC (Staph. aureus; Staphylococcus aureus, Table II, strain S225, read-out: MIC) was 0.5 µg/mL (≈ 1.17 µM), the MIC (Staph. aureus; Staphylococcus aureus, Table II, strain S226, read-out: MIC) was 1 µg/mL (≈ 2.34 µM) and the MIC (Staph. aureus; Staphylococcus aureus, Table II, strain S227, read-out: MIC) was 1 µg/mL (≈ 2.34 µM). The MIC (Staph. aureus; Staphylococcus aureus, Table II, strain S228, read-out: MIC) was 0.5 µg/mL (≈ 1.17 µM), the MIC (Staph. aureus; Staphylococcus aureus, Table II, strain S229, read-out: MIC) was 1 µg/mL (≈ 2.34 µM) and the MIC (Staph. aureus; Staphylococcus aureus, Table II, strain S230, read-out: MIC) was 0.5 µg/mL (≈ 1.17 µM). For the same compound, the MIC (Staph. aureus; Staphylococcus aureus, Table II, strain S231, read-out: MIC) was 0.25 µg/mL (≈ 0.585 µM), the MIC (Staph. aureus; Staphylococcus aureus, Table II, strain S234, read-out: MIC) was 1 µg/mL (≈ 2.34 µM) and the MIC (Staph. aureus; Staphylococcus aureus, Table II, strain S237, read-out: MIC) was 1 µg/mL (≈ 2.34 µM). It also gave an MIC (Staph. aureus; Staphylococcus aureus, Table II, strain S238, read-out: MIC) of 1 µg/mL (≈ 2.34 µM), an MIC (Staph. aureus; Staphylococcus aureus, Table II, strain S239, read-out: MIC) of 1 µg/mL (≈ 2.34 µM) and an MIC (H. influ.; [4]) of 16 µg/mL (≈ 37.4 µM). For the same compound, the MIC (H. influ.; Table II, strain 1930, read-out: MIC) was 8 µg/mL (≈ 18.7 µM), the MIC (H. influ.; Table II, strain C.L., read-out: MIC) was 8 µg/mL (≈ 18.7 µM) and the MIC (H. influ.; Table II, strain HESS, read-out: MIC) was 8 µg/mL (≈ 18.7 µM). It also gave an MIC (H. influ.; Table II, strain M366, read-out: MIC) of 16 µg/mL (≈ 37.4 µM), an MIC (H. influ.; Table II, strain R465, read-out: MIC) of 16 µg/mL (≈ 37.4 µM) and an MIC (H. influ.; Table II, strain STEL, read-out: MIC) of 16 µg/mL (≈ 37.4 µM). It also gave an MIC (Klebsiella; Klebsiella, read-out: MIC) of 4 µg/mL (≈ 9.36 µM), an MIC (Staph. epi; [5]) of 1 µg/mL (≈ 2.34 µM) and an MIC (Staph. epi; [6]) of 4 µg/mL (≈ 9.36 µM). It also gave an MIC (Staph. epi; Table II expanded spectrum, strain EPI1, read-out: MIC) of 4 µg/mL (≈ 9.36 µM), an MIC (Staph. epi; Table II, strain 219, read-out: MIC) of 5 µg/mL (≈ 11.7 µM) and an MIC (Staph. epi; Table II, strain 269, read-out: MIC) of 2 µg/mL (≈ 4.68 µM). For the same compound, the MIC (Staph. epi; Table II, strain 270, read-out: MIC) was 4 µg/mL (≈ 9.36 µM), the MIC (Staph. epi; Table II, strain 285, read-out: MIC) was 2 µg/mL (≈ 4.68 µM) and the MIC (Staph. epi; Table II, strain 286, read-out: MIC) was 0.5 µg/mL (≈ 1.17 µM). For the same compound, the MIC (Strep. A; read-out: MIC) was 0.125 µg/mL (≈ 0.292 µM).
Work on CC1(C)S[C@@H]2[C@H](NC(=O)[C@H](N)c3ccccc3)C(=O)N2[C@H]1C(=O)O [Ampicillin, reference compound] yielded an MIC (Strep. PN; read-out: MIC) of 0.03 µg/mL (≈ 0.0859 µM), an MIC (H. influ.; [7]) of 16 µg/mL (≈ 45.8 µM) and an MIC (H. influ.; [4]) of 0.5 µg/mL (≈ 1.43 µM). It also gave an MIC (Klebsiella; Klebsiella, read-out: MIC) of 16 µg/mL (≈ 45.8 µM), an MIC (Staph. epi; [6]) of 8 µg/mL (≈ 22.9 µM) and an MIC (Strep. A; read-out: MIC) of 0.03 µg/mL (≈ 0.0859 µM).
N[C@@H](C(=O)N[C@@H]1C(=O)N2C(C(=O)O)=C(Cl)CS[C@H]12)c1ccc2ccccc2c1 [Ex. 5A, D-7-(2-naphthylglycylamido)-3-chloro-3-cephem-4-carboxylic acid] showed an MIC (Strep. PN) of 0.125 µg/mL (≈ 0.299 µM), an MIC (Staph. aureus; Table I, strain S13E) of 16 µg/mL (≈ 38.3 µM) and an MIC (Staph. aureus; Table I, strain V41) of 16 µg/mL (≈ 38.3 µM). The MIC (H. influ.; Table I, strain 251) was 2 µg/mL (≈ 4.79 µM), the MIC (H. influ.; Table I, strain BRUN) was 4 µg/mL (≈ 9.57 µM) and the MIC (Klebsiella) was 2 µg/mL (≈ 4.79 µM). It also gave an MIC (Staph. epi; Table I, strain EPI1) of 2 µg/mL (≈ 4.79 µM) and an MIC (Strep. A) of 0.125 µg/mL (≈ 0.299 µM).
COC1=C(C(=O)O)N2C(=O)C(NC(=O)C(N)c3ccc4ccccc4c3)C2SC1 (racemic) [Example 6, 7-(2-Naphthylglycylamido)-3-methoxy-3-cephem-4-carboxylic acid trifluoroacetate] was tested, and the MIC (Strep. PN; read-out: MIC) was > 138 µg/mL, the MIC (Staph. aureus; [1]) was 32 µg/mL and the MIC (Staph. aureus; [2]) was 32 µg/mL. It also gave an MIC (Staph. aureus; [3]) of 1 µg/mL, an MIC (H. influ.; [7]) of 32 µg/mL and an MIC (Klebsiella; Klebsiella, read-out: MIC) of 8 µg/mL. For the same compound, the MIC (Staph. epi; [5]) was 2 µg/mL, the MIC (Staph. epi; [6]) was 8 µg/mL and the MIC (Strep. A; read-out: MIC) was 0.125 µg/mL.
